The values below come from article PMC6067006, “Functionality of Redox-Active Cysteines Is Required for Restriction of Retroviral Replication by SAMHD1” (Cell reports, 2018).

What all share (experiment): NMR-based dNTPase assay, activation by GTP
Common to all, as to format: biochemical

For assay [1], the target named is T1, SAMHD1_114–626 (HD domain construct of SAMHD1) (Homo sapiens, UniProt Q9Y3Z3).
T1 construct: HD domain construct, residues 114-626, bacterial expression; nucleotide-dependent homotetramer; 10 cysteines
T1 sequence (Q9Y3Z3 114-626): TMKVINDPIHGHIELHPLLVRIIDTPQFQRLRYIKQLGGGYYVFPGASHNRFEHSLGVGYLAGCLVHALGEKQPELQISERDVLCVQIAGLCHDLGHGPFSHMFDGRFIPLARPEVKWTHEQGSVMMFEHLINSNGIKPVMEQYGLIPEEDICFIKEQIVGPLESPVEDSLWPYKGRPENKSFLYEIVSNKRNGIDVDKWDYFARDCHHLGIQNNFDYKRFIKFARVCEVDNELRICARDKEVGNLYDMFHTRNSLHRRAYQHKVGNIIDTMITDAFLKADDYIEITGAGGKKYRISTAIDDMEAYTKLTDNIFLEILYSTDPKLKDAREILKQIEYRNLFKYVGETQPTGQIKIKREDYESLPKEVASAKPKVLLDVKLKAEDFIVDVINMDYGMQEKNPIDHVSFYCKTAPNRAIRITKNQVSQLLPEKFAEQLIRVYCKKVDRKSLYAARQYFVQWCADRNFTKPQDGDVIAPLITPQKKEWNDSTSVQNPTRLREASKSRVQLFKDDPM
The protocol:
NMR-based dNTPase assay, activation by GTP on SAMHD1_114–626 (HD domain construct of SAMHD1) | kcat and EC50^GTP parameters were determined by non-linear fitting

Assay [2] addresses T2, SAMHD1_114–626 (HD domain construct of SAMHD1) (Homo sapiens, UniProt Q9Y3Z3, C522S).
T2 construct: HD domain construct, residues 114-626, bacterial expression; nucleotide-dependent homotetramer; 10 cysteines
From the text:
NMR-based dNTPase assay, activation by GTP on SAMHD1_114–626 (HD domain construct of SAMHD1) | properties of the C522S mutant were indistinguishable from those of the WT protein

Assay [3] deals with T3, SAMHD1_114–626 (HD domain construct of SAMHD1) (Homo sapiens, UniProt Q9Y3Z3, C341S).
T3 construct: HD domain construct, residues 114-626, bacterial expression; nucleotide-dependent homotetramer; 10 cysteines
T3 sequence (Q9Y3Z3 114-626 C341S): as the sequence (Q9Y3Z3 114-626) above, with C228S counted along it
From the text: (§1) NMR-based dNTPase assay, activation by GTP on SAMHD1_114–626 (HD domain construct of SAMHD1) | EC50) values for GTP-mediated activation for C341S and C350S were also higher

Assay [4] has as its target T4, SAMHD1_114–626 (HD domain construct of SAMHD1) (Homo sapiens, UniProt Q9Y3Z3, C350S).
T4 construct: HD domain construct, residues 114-626, bacterial expression; nucleotide-dependent homotetramer; 10 cysteines
Source text: as §1

T2 sequence (Q9Y3Z3 114-626 C522S): as the sequence (Q9Y3Z3 114-626) above, with C409S counted along it
T4 sequence (Q9Y3Z3 114-626 C350S): as the sequence (Q9Y3Z3 114-626) above, with C237S counted along it

Usually EC50 stands for the midpoint of the concentration-response curve. A higher EC50 goes with lower potency in that assay. Turning to `Nc1nc2c(ncn2[C@@H]2O[C@H](COP(=O)(O)OP(=O)(O)OP(=O)(O)O)[C@@H](O)[C@H]2O)c(=O)[nH]1` [GTP], the EC50 in assay [1] was 3.9 µM; in assay [2], 4.8 µM; in assay [3] it was 44.4 µM; in assay [4] it was 8.1 µM.
